Experimental data published in patent publication US10000510B2, “Salt forms of ceftolozane” (Merck Sharp & Dohme Corp., priority 2014, dated 2018).
Structures can show the parent of a compound that is named as a salt.

What was measured:
Type in all cases: physicochemical
[1] = Stability of ceftolozane salts at 40° C. and 75% RH for one week, loss of purity by HPLC; conditions: 40° C. and 75% relative humidity, one week (7 days), initial purity minus purity after storage
Procedure: (§1) The ceftolozane salt forms provided herein can also be evaluated for stability upon exposure to high temperatures and humidity. The stability evaluation of the ceftolozane salts can be carried out by HPLC analysis using, for example, the method described in Example 1. For examples, the ceftolozane salt forms can be subjected to 40° C. and 75% relative humidity (RH) for one week (7 days) or, 25° C. and 60% relative humidity (RH) for two weeks or for four weeks. The purity and loss of purity (LOP) of these samples can be evaluated by measuring the amount of ceftolozane by HPLC (e.g., Example 1). The results of the stability analysis are summarized in the following Table B: Unless otherwise indicated herein, the HPLC method of Example 1 was used to measure ceftolozane purity disclosed herein. The loss of purity (LOP) was calculated as the difference between the initial ceftolozane purity and the ceftolozane purity after being subject to the conditions of the stability test (e.g., at 40° C. and 75% relative humidity (RH) for one week), wherein the purity was measured using the HPLC method described below. Standards and samples are prepared in 50 mM sodium perchlorate monohydrate, pH 4.00. A quantitation standard (Standard Solution 1) and check standard (Standard Solution 2) are both prepared at the target working concentration of 0.3 mg/mL taking into consideration the potency, as-is of the standard. The samples are prepared at the target active concentration of 0.3 mg/mL by preparing a sample at 0.04% (w/v). [table]

[2] = Stability of ceftolozane salts at 25° C. and 60% RH for two or four weeks, loss of purity by HPLC; conditions: 25° C. and 60% relative humidity; for 4 w, Loss of Purity: four weeks; for 2 w, Loss of Purity: two weeks (14 days)
Procedure: as §1

[3] = Dry stability of lyophilized ceftolozane zwitterion/stabilizing agent compositions at 40° C./75% RH, purity by HPLC; conditions: lyophilized solid
Procedure: The following HPLC method was used to measure ceftolozane purity disclosed in Examples 13 through 15.
HPLC conditions for Ceftolozane Purity:
Mobile Phase A: 50 mM Sodium Perchlorate, pH 2.5
Mobile Phase B: 20% ACN in 63 mM Sodium Perchlorate, pH 2.5
Column: Phenomenex Develosil ODS-UG-5, 5 μm, 250 mm×4.6 mm
Sample Solution: 1 mg/mL in water
Active ceftolozane zwitterion (“Cef”; 1620 mg; 2.1 mmol) and sodium chloride (122 mg; 2.1 mmol) were dissolved in 8.25 mL of sterile water to obtain pale yellowish solution. Aliquoted the complex solution to 5-mL freeze drying vials (0.45 mL per vial, 18 vials in total) which were positioned in a lyophilization tray. The key lyophilization conditions included freezing at −50° C. to −55° C. for 2 hours, primary drying at −30° C., 50 millitorrs for 40 hours, secondary drying at 20° C., 50 millitorrs for 7 hours, and storing at 5° C., 600 millitorrs until harvesting. The sublimate was condensed at −60° C. The freeze drying vials were harvested, inserted with proper stoppers, sealed with crimp seals, and labeled as Cef:NaCl(1:1) for dry stability evaluation at 40° C./75% RH. The vials were stored at 40° C. and 75% relative humidity (RH).
The following compositions were prepared analogously: ceftolozane zwitterion and sodium chloride (1:0.5) complex, ceftolozane zwitterion and sodium chloride (1:2) complex, ceftolozane zwitterion and sodium sulfate (1:1) complex, ceftolozane zwitterion and sodium sulfate (1:0.5) complex, ceftolozane zwitterion and sodium sulfate (1:2) complex, ceftolozane zwitterion and calcium chloride (1:1) complex, ceftolozane zwitterion and calcium chloride (1:0.5) complex, ceftolozane zwitterion and calcium chloride (1:2) complex, ceftolozane zwitterion and magnesium chloride (1:1) complex, ceftolozane zwitterion and magnesium chloride (1:0.5) complex, ceftolozane zwitterion and magnesium chloride (1:2) complex.
These compositions and ceftolozane zwitterion alone were evaluated for stability at 40° C./75% RH by HPLC. The dry samples were dissolved in water for loading onto the column.

[4] = listed as phosphate salt of ceftolozane

Molecule	1 w, Loss of Purity [1] [%]	4 w, Loss of Purity [2] [%]	2 w, Loss of Purity [2] [%]	also measured
Cn1c(N)c(NC(=O)NCCN)c[n+]1CC1=C(C(=O)O)N2C(=O)[C@@H](NC(=O)/C(=N\OC(C)(C)C(=O)O)c3nsc(N)n3)[C@H]2SC1 [Ceftolozane chloride, ceftolozane chloride]	7.5	2.9	1.0	1 w, Loss of Purity ([1]; listed as chloride salt of ceftolozane): 7.5%
Cn1c(N)c(NC(=O)NCCN)c[n+]1CC1=C(C(=O)O)N2C(=O)[C@@H](NC(=O)/C(=N\OC(C)(C)C(=O)O)c3nsc(N)n3)[C@H]2SC1 [Ceftolozane sulfate, 5-amino-4-{[(2-aminoethyl)carbamoyl]amino}-2-{[(6R,7R)-7-({(2Z)-2-(5-amino-1,2,4-thiadiazol-3-yl)-2-[(1-carboxy-1-methylethoxy)imino]acetyl}amino)-2-carboxy-8-oxo-5-thia-1-azabicyclo[4.2.0]oct-2-en-3-yl]methyl}-1-methyl-1H-pyrazolium monosulfate, reference compound]	22.4	5.1	1.2	–
Cn1c(N)c(NC(=O)NCCN)c[n+]1CC1=C(C(=O)[O-])N2C(=O)[C@@H](NC(=O)/C(=N\OC(C)(C)C(=O)O)c3nsc(N)n3)[C@H]2SC1 [Ceftolozane zwitterion, (6R,7R)-3-[(5-amino-4-{[(2-aminoethyl)carbamoyl]amino}-1-methyl-1H-pyrazol-2-ium-2-yl)methyl]-7-({(2Z)-2-(5-amino-1,2,4-thiadiazol-3-yl)-2-[(1-carboxy-1-methylethoxy)imino]acetyl}amino)-8-oxo-5-thia-1-azabicyclo[4.2.0]oct-2-ene-2-carboxylate]	14.4	7.4	3.6	% purity of Ceftolozane, 3 day ([3]; 3 day at 40° C./75% RH): 88.0%; % purity of Ceftolozane, 7 day ([3]; 7 day at 40° C./75% RH): 84.5%; % purity of Ceftolozane, 14 day ([3]; 14 day at 40° C./75% RH): 77.9%; % purity of Ceftolozane, T0 ([3]; T0 (start of storage at 40° C./75% RH)): 92.6%
ceftolozane bromide	13.3	2.3	0.4	2 w, Loss of Purity ([2]; listed as bromide salt of ceftolozane): 0.4%
ceftolozane edisylate	9.6	1.7	1.5	4 w, Loss of Purity ([2]; listed as edisylate salt of ceftolozane): 1.7%
ceftolozane ketoglutarate	22.6	5.8	3.5	–
ceftolozane maleate	9.3	5.2	3.6	–
ceftolozane mesylate	8.3	4.3	1.3	–
ceftolozane phosphate	30.9	13.7	4.5	1 w, Loss of Purity [1, 4]: 30.9%; 4 w, Loss of Purity [2, 4]: 13.7%; 2 w, Loss of Purity [2, 4]: 4.5%
